Assay results: PMC9919513, “A Practical Approach to Bicyclic Carbamoyl Pyridones with Application to the Synthesis of HIV-1 Integrase Strand Transfer Inhibitors” (Molecules, 2023)
Like-named read-outs stand apart in the source and are kept apart here.

Assays:
[1] = tested on: HIV-1 vectors bearing the S230N IN mutant; details: single round infection assays, read-out: EC50 against the S230N IN mutant; cited from earlier work
[2] = tested on: HIV-1 vectors that carry WT IN; experiment: Single-round HIV-1 replication antiviral assay, wild-type IN; type: cell-based; details: for EC50: Human immunodeficiency virus 1, HOS, 48 h, read-out: EC50, antiviral potency, WT IN, VSV-g-pseudotyped HIV-1 luciferase vector with WT IN, HOS cells, 48 h; for Ratio of the antiviral potencies after and before hydrogenation (WT): EC50 of saturated 7 over EC50 of unsaturated 6, WT IN
Description: The bicyclic metal chelating carbamoyl pyridone moiety is common to second-generation tricyclic INSTIs (3, 4, and 5, Figure 1). Analogs of the current study are simplified analogs that lack a third ring. […] The halogen substitution pattern of the benzylamide moiety can affect inhibitory potencies of INSTIs. We determined the antiviral potencies of our compounds in single round HIV-1 replication assays using viral constructs with wild-type IN [31]. Cytotoxicities were determined as previously described. […] In general, the potencies of bicyclic analogs 6 having an unsaturated bond at the C4 position were insensitive to differences in N-methyl substituents. […] Analogs 6g and 6h represent simplified analogs of DTG (3) and CAB (5), respectively, in which the third ring (C-ring) is opened and having doble bond in B-ring, but lacking α-methyl stereochemistry.
Human embryonic kidney cell culture cell line 293 was acquired from the American Type Culture Collection (ATCC). The human osteosarcoma cell line, HOS, was obtained from Dr. Richard Schwartz (Michigan State University, East Lansing, MI, USA) and grown in Dulbecco’s modified Eagle’s medium (Invitrogen, Carlsbad, CA, USA) supplemented with 5% (v/v) fetal bovine serum, 5% newborn calf serum, and penicillin (50 units/mL) plus streptomycin (50 µg/mL; Quality Biological, Gaithersburg, MD, USA). The transfection vector, pNLNgoMIVR-ΔLUC was made from pNLNgoMIVR-ΔEnv.HSA by removing the HSA reporter gene and replacing it with a luciferase reporter gene between the NotI and XhoI restriction sites. To produce the new IN mutant S230N used in this study, the IN open reading frame was removed from pNLNgoMIVR-ΔENV.LUC by digestion with KpnI and SalI, and the resulting fragment was inserted between the KpnI and SalI sites of pBluescript KS+. Using that construct as the wild-type template, we prepared the following HIV-1 IN mutant S230N using the QuikChange II XL site-directed mutagenesis kit (Agilent Technologies, Santa Clara, CA, USA) protocol. The following sense oligonucleotides were used with matching cognate antisense oligonucleotides (not shown) (Integrated DNA Technologies, Coralville, IA, USA) in the mutagenesis: S230N 5′-[…]-3′. The DNA sequence of the IN mutant S230N construct was verified independently by DNA sequence determination. The mutated IN coding sequences from pBluescript KS+ were then subcloned into pNLNgoMIVR-ΔEnv.LUC (between the KpnI and SalI sites) to produce mutant HIV-1 constructs, which were also checked by DNA sequencing. […]. On the day prior to transfection, 293 cells were plated on 100 mm diameter dishes at a density of 1.5 × 10^6 cells per plate. Next, 293 cells were transfected with 16 µg of pNLNgoMIVR^-ΔLUC and 4 µg of pHCMV-g (obtained from Dr. Jane Burns, University of California, San Diego) using the calcium phosphate method. At approximately 6 h after the calcium phosphate precipitate was added, 293 cells were washed twice with phosphate-buffered saline (PBS) and incubated with fresh media for 48 h. The virus-containing supernatants were then harvested, clarified by low-speed centrifugation, filtrated, and diluted for preparation in antiviral infection assays. On the day prior to the screen, HOS cells were seeded in a 96-well luminescence cell culture plate at a density of 4000 cells in 100 µL per well. On the day of the screen for cellular cytotoxicity determination, cells were treated with compounds from a concentration range of 250 µM to 0.05 µM and then incubated at 37 °C for 48 h. On the day of the screen for antiviral activity infection assays, cells were treated with compounds from a concentration range of 5 µM to 0.0001 µM using 11 serial dilutions and then incubated at 37 °C for 3 h. After compound incorporation and activation in the cell, 100 µL of virus-stock (WT or mutant) diluted to achieve a luciferase signal between 0.2 and 1.5 Relative Luciferase Units (RLUs) was added to each well and further incubated at 37 °C for 48 h. […]

[3] = tested on: HIV-1 vectors bearing the S230N IN mutant; experiment: Single-round HIV-1 replication antiviral assay, S230N IN mutant; type: cell-based
From the text: To further evaluate the antiviral activities of select compounds, we determined their EC50 values against the IN mutant S230N, which has been selected in vitro against an early Merck INSTI L810,830, a prototype for naphthyridine analogs.
(§1) Human embryonic kidney cell culture cell line 293 was acquired from the American Type Culture Collection (ATCC). The human osteosarcoma cell line, HOS, was obtained from Dr. Richard Schwartz (Michigan State University, East Lansing, MI, USA) and grown in Dulbecco’s modified Eagle’s medium (Invitrogen, Carlsbad, CA, USA) supplemented with 5% (v/v) fetal bovine serum, 5% newborn calf serum, and penicillin (50 units/mL) plus streptomycin (50 µg/mL; Quality Biological, Gaithersburg, MD, USA). The transfection vector, pNLNgoMIVR-ΔLUC was made from pNLNgoMIVR-ΔEnv.HSA by removing the HSA reporter gene and replacing it with a luciferase reporter gene between the NotI and XhoI restriction sites. To produce the new IN mutant S230N used in this study, the IN open reading frame was removed from pNLNgoMIVR-ΔENV.LUC by digestion with KpnI and SalI, and the resulting fragment was inserted between the KpnI and SalI sites of pBluescript KS+. Using that construct as the wild-type template, we prepared the following HIV-1 IN mutant S230N using the QuikChange II XL site-directed mutagenesis kit (Agilent Technologies, Santa Clara, CA, USA) protocol. The following sense oligonucleotides were used with matching cognate antisense oligonucleotides (not shown) (Integrated DNA Technologies, Coralville, IA, USA) in the mutagenesis: S230N 5′-[…]-3′. The DNA sequence of the IN mutant S230N construct was verified independently by DNA sequence determination. The mutated IN coding sequences from pBluescript KS+ were then subcloned into pNLNgoMIVR-ΔEnv.LUC (between the KpnI and SalI sites) to produce mutant HIV-1 constructs, which were also checked by DNA sequencing. […]. On the day prior to transfection, 293 cells were plated on 100 mm diameter dishes at a density of 1.5 × 10^6 cells per plate. Next, 293 cells were transfected with 16 µg of pNLNgoMIVR^-ΔLUC and 4 µg of pHCMV-g (obtained from Dr. Jane Burns, University of California, San Diego) using the calcium phosphate method. At approximately 6 h after the calcium phosphate precipitate was added, 293 cells were washed twice with phosphate-buffered saline (PBS) and incubated with fresh media for 48 h. The virus-containing supernatants were then harvested, clarified by low-speed centrifugation, filtrated, and diluted for preparation in antiviral infection assays. On the day prior to the screen, HOS cells were seeded in a 96-well luminescence cell culture plate at a density of 4000 cells in 100 µL per well. On the day of the screen for cellular cytotoxicity determination, cells were treated with compounds from a concentration range of 250 µM to 0.05 µM and then incubated at 37 °C for 48 h. On the day of the screen for antiviral activity infection assays, cells were treated with compounds from a concentration range of 5 µM to 0.0001 µM using 11 serial dilutions and then incubated at 37 °C for 3 h. After compound incorporation and activation in the cell, 100 µL of virus-stock (WT or mutant) diluted to achieve a luciferase signal between 0.2 and 1.5 Relative Luciferase Units (RLUs) was added to each well and further incubated at 37 °C for 48 h. Cellular cytotoxicity was measured by using the ATP Lite Luminescence detection system and monitored by adding 50 µL of cell lysis buffer from the Luminescence ATP detection assay to each well followed by mixing at 700 rpm at room temperature for 5 min using a compact thermomixer. […]

[4] = in vitro; type: cell-based; details: human, HOS cells, 48 h; read-out: CC50, cytotoxic concentration resulting in 50% reduction in the level of ATP
Description: as §1, with “thermomixer. After addition of 50 µL of reconstituted Luminescence ATP detection assay reagent to all wells except for the negative control/background wells, the plates were mixed at 700 rpm at room temperature for 5 min using a compact thermomixer, incubated at room temperature for 20 min to allow time for signal development, and finally, cytotoxicity was determined using the microplate reader. Infectivity was measured by using the Steady-lite plus luminescence reporter gene assay system (PerkinElmer, Waltham, MA, USA).” for “thermomixer.”

C[C@@H]1CCO[C@H]2Cn3cc(C(=O)NCc4ccc(F)cc4F)c(=O)c(O)c3C(=O)N12 [DTG, Dolutegravir, reference compound]
EC50 [1]: 7.9 ± 1.3 nM
EC50 [2]: ~2 nM

O=C(NCc1ccc(F)cc1F)c1cn2c(c(O)c1=O)C(=O)N(CCCCCO)CC2 [Compound 7d, N-(2,4-Difluorobenzyl)-9-hydroxy-2-(5-hydroxypentyl)-1,8-dioxo-1,3,4,8-tetrahydro-2H-pyrido [1,2-a]pyrazine-7-carboxamide]
Ratio of the antiviral potencies after and before hydrogenation (WT) [2]: 5.0
EC50 [2]: 54.5 ± 3 nM
melting point: 201 to 207 °C
Ratio of the antiviral potencies after and before hydrogenation (S230N) ([3]; EC50 of saturated 7 over EC50 of unsaturated 6, S230N IN): 6.29
EC50 ([3]; Human immunodeficiency virus 1, HOS, 48 h, read-out: EC50, antiviral potency, S230N IN mutant): 97 nM

CC(C)CC(C)N1CCn2cc(C(=O)NCc3ccc(F)cc3F)c(=O)c(O)c2C1=O (centres unmarked) [Compound 7i, N-(2,4-Difluorobenzyl)-9-hydroxy-2-(4-methylpentan-2-yl)-1,8-dioxo-1,3,4,8-tetrahydro-2H-pyrido [1,2-a]pyrazine-7-carboxamide]
Ratio of the antiviral potencies after and before hydrogenation (WT) [2]: 1.4
EC50 [2]: 6 ± 1.2 nM
melting point: 190 to 192 °C
CC50 [4]: > 250000 nM
